Assay: Pharmacokinetics of GST-HG171 and ritonavir in plasma, alone and co-administered with itraconazole (drug-drug interaction study)
Settings: Day 3, N = 12, median (minimum, maximum)

CC(C)c1nc(CN(C)C(=O)N[C@H](C(=O)N[C@@H](Cc2ccccc2)C[C@H](O)[C@H](Cc2ccccc2)NC(=O)OCc2cncs2)C(C)C)cs1 [Ritonavir, ritonavir]
Tmax: 2.50 (2.0008, 3.0011) h

— paper PMC13231921 (Antimicrobial Agents and Chemotherapy, 2026)
